Results on 11 compounds are retold here after article PMC4498326, “Assessing the Efficacy of Mdm2/Mdm4-Inhibiting Stapled Peptides Using Cellular Thermal Shift Assays” (Scientific Reports, 2015).

For experiment [1], the target named is T1, Mdm4 (Homo sapiens, UniProt O15151).
T1 sequence (O15151 1-490): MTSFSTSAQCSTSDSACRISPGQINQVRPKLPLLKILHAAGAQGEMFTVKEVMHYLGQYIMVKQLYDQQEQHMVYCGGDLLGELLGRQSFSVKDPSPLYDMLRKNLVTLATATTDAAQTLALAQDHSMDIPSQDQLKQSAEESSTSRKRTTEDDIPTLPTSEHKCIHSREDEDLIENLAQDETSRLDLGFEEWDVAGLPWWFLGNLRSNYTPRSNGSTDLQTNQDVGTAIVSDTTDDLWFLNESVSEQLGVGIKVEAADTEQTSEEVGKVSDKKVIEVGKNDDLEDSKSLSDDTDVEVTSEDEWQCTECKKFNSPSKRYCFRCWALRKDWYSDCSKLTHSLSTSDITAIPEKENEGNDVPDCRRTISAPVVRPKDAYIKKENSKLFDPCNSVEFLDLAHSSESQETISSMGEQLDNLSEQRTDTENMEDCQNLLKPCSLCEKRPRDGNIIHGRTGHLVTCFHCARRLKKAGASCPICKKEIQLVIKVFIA
The experiment can be described thus: Lysate CETSA, thermal stabilisation of Mdm4 in AML2 cell lysates. Format: binding. Also on record: endogenous in cells; host or cells: OCI/AML-2 (AML2) cells, pre-treated with MG132.
Protocol: (§1) Cells pre-treated with 10 μM MG132 for one hour were lysed in kinase buffer (25 mM Tris pH 7.4, 10 mM MgCl2, 2 mM DTT, 1x protease (Roche) and phosphatase inhibitor cocktails (Thermo Scientific)) by dounce homogenisation with a 2 ml Wheaton mortar and pestle. […] Following a 15 min incubation at room temperature with the drugs, the cell lysates were individually heated to the indicated temperatures for 2 min, cool at room temperature for 2 min, and placed on ice. Insoluble proteins were separated by centrifugation, and the soluble proteins were used for SDS PAGE and Western blotting for the indicated proteins. Three independent replicates were performed.
(§2) The relative signal intensities were plotted against temperature using Graphpad (Prism) and a variable slope sigmoidal curve was fitted by least squares for each data set using the following equation (1): [drawing 1]
(§3) Initial values for top and bottom plateaus were set at 1.0 and 0 respectively for curve fitting, while initial values for Tm50 and Hill Slope were automatically chosen. As the asymmetry of errors is small, errors were assumed to be symmetrical for statistical analyses.

Experiment [2] has as its target T2, Mdm2 (Homo sapiens, UniProt Q00987). Kind of experiment: Lysate CETSA, thermal stabilisation of Mdm2 in AML2 cell lysates. It counts as binding. Also on record: endogenous in cells; host or cells: OCI/AML-2 (AML2) cells, pre-treated with MG132. The following applies: Fig. 1a, 10 μM in 5 mg/ml AML2 cell lysates, three independent replicates.
Protocol: as §1, §2, §3
Experiment [3] addresses T2, Mdm2. The experiment can be described thus: Whole cell CETSA, Mdm2.
Protocol: (§4) Cells were pre-treated with 10 μM MG132 for one hour before a four hour treatment with the indicated drugs. They were then aliquoted for heating to different temperatures for 2 min, cooled at room temperature for 2 min and placed on ice. Kinase buffer was added to the cells, followed by lysis with three freeze/thaw cycles in liquid nitrogen. Insoluble proteins were separated by centrifugation, and the soluble proteins were used for SDS PAGE and Western blotting. Three independent experiments were performed.
as §2, §3
Experiment [4] concerns the target T2, Mdm2. The arrangement: method as in 3 sources, ref 10 = [10]; PMID 23214419; doi:10.1021/cb3005148; Brown C. J. et al. Stapled Peptides with Improved Potency and Specificity That Activate p53 . ACS Chem. Biol . 8 , 506 – 512 ( 2013 ). 23214419 10.1021/cb3005148 ||| ref 11 = [11]; PMID 23946421; doi:10.1073/pnas; Chang Y. S. et al. Stapled α−helical peptide drug development: A potent dual inhibitor of MDM2 and MDMX for p53-dependent cancer therapy . Proc. Natl. Acad. Sci . 201303002 (2013). 10.1073/pnas .13030 ||| ref 6 = [6]; PMID 14704432; doi:10.1126/science.1092472; Vassilev L. T. et al. In vivo activation of the p53 pathway by small-molecule antagonists of MDM2 . Science 303 , 844 – 848 ( 2004 ). 14704432 10.1126/science.1092472. The settings on record: competition assay, cited from earlier work.

Experiment [5] deals with T1, Mdm4. Also on record: method as in 3 sources, ref 10 = [10]; PMID 23214419; doi:10.1021/cb3005148; Brown C. J. et al. Stapled Peptides with Improved Potency and Specificity That Activate p53 . ACS Chem. Biol . 8 , 506 – 512 ( 2013 ). 23214419 10.1021/cb3005148 ||| ref 11 = [11]; PMID 23946421; doi:10.1073/pnas; Chang Y. S. et al. Stapled α−helical peptide drug development: A potent dual inhibitor of MDM2 and MDMX for p53-dependent cancer therapy . Proc. Natl. Acad. Sci . 201303002 (2013). 10.1073/pnas .13030 ||| ref 6 = [6]; PMID 14704432; doi:10.1126/science.1092472; Vassilev L. T. et al. In vivo activation of the p53 pathway by small-molecule antagonists of MDM2 . Science 303 , 844 – 848 ( 2004 ). 14704432 10.1126/science.1092472. The settings on record: competition assay, cited from earlier work.

In experiment [6] the target is Mdm2 (human (endogenous in OCI/AML-2)) (UniProt Q00987). The experiment can be described thus: cellular thermal shift assay (CETSA); lysate CETSA: peptides at 10 uM added to 5 mg/ml AML2 cell lysate (kinase buffer: 25 mM Tris pH 7.4, 10 mM MgCl2, 2 mM DTT), 15 min at room temperature, heated 2 min, soluble protein by Western blot; dTm50 against the control.
Sequence of Mdm2 (human (endogenous in OCI/AML-2)) (Q00987 whole entry): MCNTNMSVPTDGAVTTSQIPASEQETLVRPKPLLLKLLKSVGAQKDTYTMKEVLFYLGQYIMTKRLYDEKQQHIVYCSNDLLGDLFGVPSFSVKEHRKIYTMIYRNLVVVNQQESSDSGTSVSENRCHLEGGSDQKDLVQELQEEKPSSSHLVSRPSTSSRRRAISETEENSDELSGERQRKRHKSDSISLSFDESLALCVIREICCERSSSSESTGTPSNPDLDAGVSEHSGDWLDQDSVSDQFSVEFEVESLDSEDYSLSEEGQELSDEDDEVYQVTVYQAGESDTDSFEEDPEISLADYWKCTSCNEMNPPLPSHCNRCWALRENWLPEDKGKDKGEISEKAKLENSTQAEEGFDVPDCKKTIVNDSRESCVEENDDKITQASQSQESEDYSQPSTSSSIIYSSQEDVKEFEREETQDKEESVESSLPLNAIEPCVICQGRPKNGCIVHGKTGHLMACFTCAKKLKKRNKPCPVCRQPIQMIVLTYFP
Experiment [7] has as its system p53 responsive β-galactosidase reporter in T22 cells. Kind of experiment: T22 p53 β-galactosidase based reporter assay. Format: cell-based. The following applies: 18 h treatment, text points to Fig. 2a in Brown et al., 2013.
Protocol: T22 cells, which were stably transfected with a p53 responsive β-galactosidase reporter, were seeded into 96-well plate at a cell density of 8000 cells per well[22]. Cells were maintained in Dulbecco’s Minimal Eagle Medium (DMEM) with 10% FBS and penicillin/streptomycin and incubated for 24 hours before treatment with the stapled peptides for 18 hours. β-galactosidase activity was assayed using the FluoReporter LacZ/Galactosidase Quantitation kit (Invitrogen) as per manufacturer’s instructions. Measurements were made using an Envision plate reader (Perkin Elmer). Experiments were carried out independently thrice.
Experiment [8] addresses T1, Mdm4. The experiment can be described thus: Whole cell CETSA, Mdm4. The settings on record: whole cells 25 μM.
Protocol: as §4, §2, §3
Experiment [9] deals with Mdm4 (human (endogenous in OCI/AML-2)) (UniProt O15151). Kind of experiment: cellular thermal shift assay (CETSA); lysate CETSA: peptides at 10 uM added to 5 mg/ml AML2 cell lysate (kinase buffer: 25 mM Tris pH 7.4, 10 mM MgCl2, 2 mM DTT), 15 min at room temperature, heated 2 min, soluble protein by Western blot; dTm50 against the control.
The target is the same in experiment [10]. The experiment can be described thus: cellular thermal shift assay (CETSA); whole cell CETSA: OCI/AML-2 cells pre-treated with 10 uM MG132 for 1 h, then 25 uM Staplin-2 for 4 h, intact cells heated 2 min, lysed by freeze/thaw, soluble protein by Western blot; compared with the lysate CETSA.
Experiment [11] has as its target Mdm2 (human (endogenous in OCI/AML-2)) (UniProt Q00987). The description is as above.
Setting [12] is: no reference number printed in the cell, footnote: IC50s are obtained from the references indicated.

Like-named read-outs stand apart in the source and are kept apart here. Bridge positions count the residues as written; N and C are the ends. Square brackets hold non-standard residues; d marks the D form. Peptide text beside a SMILES is read from it. R8 = C=CCCCCCC[C@@](C)(N)C(=O)O; S5 = C=CCCC[C@](C)(N)C(=O)O

T2 sequence (Q00987 whole entry): as above

`CC(C)C[C@H](NC(=O)c1ccc2c(c1)C(=O)OC21c2ccc(O)cc2Oc2cc(O)ccc21)C(=O)N[C@H](C(=O)N[C@@H](Cc1ccccc1)C(=O)N[C@]1(C)CCCCCCC=CCCC[C@@](C)(C(=O)N[C@@H](CO)C(=O)N[C@@H](C)C(=O)N[C@@H](C)C(N)=O)NC(=O)[C@H](CC2CCC2)NC(=O)[C@H](CCC(N)=O)NC(=O)[C@H](C)NC(=O)[C@H](Cc2c[nH]c3ccccc23)NC(=O)[C@H](Cc2ccc(O)cc2)NC(=O)[C@H](CCC(=O)O)NC1=O)[C@@H](C)O` [ATSP-7041 ^FAM]: the “Mdm4 ΔTm50 (±95% CI)” value in [1] (Fig. 2c, labelled and unlabelled stapled peptides, AML2 cell extracts, 15 min) is 1.11 (1.65) °C.

As for `COc1ccc(C2=N[C@@H](c3ccc(Cl)cc3)[C@@H](c3ccc(Cl)cc3)N2C(=O)N2CCNC(=O)C2)c(OC(C)C)c1` [Nutlin-3, nutlin-3, reference compound], the “Mdm2: Tm50 (mean +95% CI −95% CI)” value in experiment [2] (15 min room temperature, heated 2 min, Western blot) came to 55.9 °C. The “Mdm2 ΔΔTm50 (±95% CI), lysate versus whole cell” value in [3] (Fig. 3a, 10 μM) is 0.24 ± 1.42 °C.

As for `CC(=O)N[C@H](C(=O)N[C@@H](CO)C(=O)N[C@@H](C)C(=O)N[C@]1(C)CCCCCCC=CCCC[C@@](C)(C(N)=O)NC(=O)[C@H](C)NC(=O)[C@H](CC(C)C)NC(=O)[C@H](C)NC(=O)[C@H](C)NC(=O)[C@H](Cc2ccc(O)cc2)NC(=O)[C@H](CCC(=O)O)NC1=O)[C@@H](C)O` [Staplin-Control, reference compound] (Ac-TSA[R8]EYAALA[S5]-NH2; staple 4-11), the IC50 in experiment [4] (setting [12]) and in [5] (setting [12]) was over 10000 nM throughout.

Take `CC(=O)N[C@H](C(=O)N[C@@H](CO)C(=O)N[C@@H](Cc1ccccc1)C(=O)N[C@]1(C)CCCCCCC=CCCC[C@@](C)(C(N)=O)NC(=O)[C@H](CC(C)C)NC(=O)[C@H](CC(C)C)NC(=O)[C@H](C)NC(=O)[C@H](Cc2c[nH]c3ccccc23)NC(=O)[C@H](Cc2ccc(O)cc2)NC(=O)[C@H](CCC(=O)O)NC1=O)[C@@H](C)O` [Staplin]: the ΔTm at 10 µM was 5.48 °C in experiment [1] (human, 0.25 h, Fig. 1b, 10 μM in 5 mg/ml AML2 cell lysates, versus control, three independent replicates, read-out: Mdm4: ΔTm50 (±95% CI)) and 6.76 °C in experiment [2] (human, 0.25 h, versus control, read-out: Mdm2: ΔTm50 (±95% CI)). Moreover, the IC50 in experiment [5] was 660 ± 60 nM.

Consider ATSP-7041 (peptide), for which the thermal shift (ΔTm50) in experiment [6] is 1.52 °C.

With “Ac-^1LTFXrEYWAQ(Cba)XSSAA^14-NH2 (sidechain bridge or staple) [ATSP-7041, reference compound]”, the “p53 activation measured by β-galactosidase activity with increasing concentrations” value in experiment [7] is “correspondingly increasing p53 activity and plateaued off at maxima”. For the same compound, the IC50 in experiment [5] was 2310 nM.

On to “Ac-^1TSFXrEYW(6Cl)WALLXs^11-NH2 (sidechain bridge or staple) [Staplin-2]”, for which the IC50 in [4] is 320 ± 20 nM; in experiment [5], 3490 ± 630 nM. The “ΔΔTm50 (±95% CI) Mdm4, lysate versus whole cell” value in experiment [8] (Fig. 3b) came out at 3.58 °C. Also, the “mean thermal shift from the whole cell CETSA as % of the mean thermal shift for the cell lysate CETSA, Mdm4” value in experiment [8] was found to be 33%. Besides, the “Mdm4: ΔTm50 (±95% CI)” value in experiment [1] (Fig. 1b, 10 μM in 5 mg/ml AML2 cell lysates, versus control, three independent replicates) was 5.44 °C. In addition, the “Mdm2: ΔTm50 (±95% CI)” value in experiment [2] (versus control) is 6.58 °C. Besides, the “p53 activation measured by β-galactosidase activity with increasing concentrations” value in experiment [7] was “correspondingly increasing p53 activity and plateaued off at maxima”. The “ΔΔTm50 (±95% CI) Mdm2, lysate versus whole cell” value in [3] (Fig. 3b, whole cells 25 μM) came to 4.01 °C. Besides, in experiment [3] (whole cells 25 μM), the “mean thermal shift from the whole cell CETSA as % of the mean thermal shift for the cell lysate CETSA, Mdm2” value is 40%.

Take FAM-labelled ATSP-7041 (peptide): in [9], the decrease in thermal shift against unlabelled ATSP-7041 was found to be 0.4 °C.

In the case of FAM-labelled Staplin-2 (peptide), the values for the thermal shift less than that of unlabelled Staplin-2 in experiment [9] and in experiment [6] were 2.99 °C and 2.71 °C, respectively.

For the compound Staplin (peptide), the ΔTm50 in experiment [9] amounted to 5.48 °C; in [6] it was 6.76 °C.

As for Staplin-2 (peptide), the ΔTm50 amounted to 5.44 °C in experiment [9] and 6.58 °C in experiment [6]. Besides, the mean thermal shift in whole cell CETSA as percent of that in cell lysate CETSA in [10] was determined as 33%; in [11], 40%. Besides, the values for the ΔΔTm50 (whole cell CETSA against cell lysate CETSA) in experiment [10] and in experiment [11] were 3.58 °C and 4.01 °C, respectively.
